# Entries after “also recorded” stand apart in the source; their conditions may differ. Where two headings read alike, the source gives them in different places.
# Tests used:
# P388 leukemia [1] = details: mice implanted with the P388 leukemia model; cited from earlier work
# [2] = cited from earlier work
# P388 leukemia [3] = test system: P388 leukemia
# [4] = Solubility in water and ethanol; format: physicochemical
# [5] = powdered form; for % of degradation products after 1 month at 30° C. with 75% relative humidity: open bottle
# [6] = listed as hemiethanolate compound of formula 3 in crystalline form
compound,measurement,setting,value
"4′-demethylepipodophyllotoxin 2″,3″-bispentafluoro-phenoxyacetyl-4″,6″-ethylidene-β-D-glucoside 4′-phosphate [Compound of formula 1]",stability on conservation,"conserved at 4° C. and, a fortiori, at ambient temperature",degrades over time
same,stability,usual conditions of neutral and acid pH and of temperature,stable
same,survival,P388 leukemia [1],long survival
COc1cc([C@@H]2c3cc4c(cc3[C@@H](O[C@@H]3O[C@@H]5CO[C@@H](C)O[C@H]5[C@H](O)[C@H]3O)[C@H]3COC(=O)[C@H]23)OCO4)cc(OC)c1OP(=O)(O)O [Etopophos],solubility in water,[2],100 mg/mL
"COc1cc(C2c3cc4c(cc3[C@@H](OC3OC5COC(C)OC5C(OC(=O)COc5c(F)c(F)c(F)c(F)c5F)C3OC(=O)COc3c(F)c(F)c(F)c(F)c3F)[C@H]3COC(=O)C23)OCO4)cc(OC)c1OP(=O)(O)O (stereo partly drawn) [Compound of formula 2 in amorphous form, 4′-demethylepipodophyllotoxin 2″,3″-bispentafluoro-phenoxyacetyl-4″,6″-ethylidene-β-D-glucoside 4′-phosphate]",antitumor activity (in words),"P388 leukemia [3]; mouse, in vivo",does not induce any significant antitumor activity
same,in vivo antitumor activity (in words),"P388 leukemia [3]; mouse, in vivo",did not have the in vivo activity
same,T/C values (%),"P388 leukemia [3]; mouse, in vivo, ip, 40 mg/kg",100%
same,T/C values (%),"P388 leukemia [3]; mouse, in vivo, ip, 80 mg/kg",114%
same,T/C values (%),"P388 leukemia [3]; mouse, in vivo, ip, 160 mg/kg",157%
same,solubility in ethanol (in words),[4]; ethanol,soluble
same,solubility in water (in words),[4]; water,is not
"COc1cc(C2c3cc4c(cc3[C@@H](OC3OC5COC(C)OC5C(OC(=O)COc5c(F)c(F)c(F)c(F)c5F)C3OC(=O)COc3c(F)c(F)c(F)c(F)c3F)[C@H]3COC(=O)C23)OCO4)cc(OC)c1OP(=O)(O)O (stereo partly drawn) [Crystalline formula 2, 4′-demethylepipodophyllotoxin 2″,3″-bispentafluorophenoxyacetyl-4″,6″-ethylidene-β-D-glucoside 4′-phosphate]",in vivo antitumor activity (in words),"P388 leukemia [3]; mouse, in vivo",exhibits the required pharmacological activity; also recorded: high-level antitumor activity
same,prolongation of the survival of the animals,"P388 leukemia [3]; mouse, in vivo, 40 mg/kg",43%
same,prolongation of the survival of the animals,"P388 leukemia [3]; mouse, in vivo, 160 mg/kg",200%
same,T/C values (%),"P388 leukemia [3]; mouse, in vivo, ip, 40 mg/kg",143%
same,T/C values (%),"P388 leukemia [3]; mouse, in vivo, ip, 80 mg/kg",157%
same,T/C values (%),"P388 leukemia [3]; mouse, in vivo, ip, 160 mg/kg",300%
"hemiethanolate of 4′-demethylepipodophyllotoxin 2″,3″-bispentafluoro-phenoxyacetyl-4″,6″-ethylidene-β-D-glucoside 4′-phosphate",in vivo antitumor activity (in words),"P388 leukemia [3]; P388 leukemia model, overall, listed as compound of formula 3 in crystalline form",high-level antitumor activity
same,in vivo antitumor activity (in words),"P388 leukemia [3]; P388 leukemia model, overall, listed as hemiethanolate of formula 3",exhibits the required pharmacological activity
same,prolongation of the survival of the animals,P388 leukemia [3]; dose 40 mg/kg,43%
same,T/C values (%),"P388 leukemia [3]; dose 40 mg/kg, single intraperitoneal injection on day 1, median survival treated/control x 100",143%
same,T/C values (%),"P388 leukemia [3]; dose 80 mg/kg, single intraperitoneal injection on day 1, median survival treated/control x 100",143%
same,prolongation of the survival of the animals,P388 leukemia [3]; dose 160 mg/kg,229%
same,T/C values (%),"P388 leukemia [3]; dose 160 mg/kg, single intraperitoneal injection on day 1, median survival treated/control x 100",329%
same,% of degradation products after 1 month at 30° C. with 75% relative humidity,[5],1.8%
same,% of degradation products after 1 month at 30° C. with 75% relative humidity,[5]; [6],1.8%
same,% of degradation products after 1 month at 40° C. in a closed bottle,[5],1.5%
same,% of degradation products after 1 month at 40° C. in a closed bottle,[5]; [6],1.5%

# — US20070042971A1, “Crystalline compound of 4'-demethyl-4'-phosphate-2", 3"-bispentafluorophenoxy-acetyl-4", 6"-ethylidene-beta-d-epipodophyllotoxin glucoside either in its free form or solvated with ethanol” (Pierre Fabre Medicament, priority 2003, published 2007)
